Measured values taken from PubChem BioAssay (NCI).
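Test compounds were applied to cells in 96-well plates for 48 hours at 5 doses. TGI denotes the concentration required for complete inhibition of growth.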

Columns and labels:
Test in all cases: growth of human tumour cells (NCI), 48 h
RXF 393 renal = tested on: RXF 393 renal
KM20L2 colon = tested on: KM20L2 colon
SK-MEL-2 melanoma = tested on: SK-MEL-2 melanoma
OVCAR-8 ovarian = tested on: OVCAR-8 ovarian
HL-60(TB) leukemia = tested on: HL-60(TB) leukemia
K-562 leukemia = tested on: K-562 leukemia
MALME-3M melanoma = tested on: MALME-3M melanoma
NCI-H522 lung = tested on: NCI-H522 lung
SF-539 CNS = tested on: SF-539 CNS
ACHN renal = tested on: ACHN renal
IGROV1 ovarian = tested on: IGROV1 ovarian
UACC-62 melanoma = tested on: UACC-62 melanoma
UACC-257 melanoma = tested on: UACC-257 melanoma
SN12C renal = tested on: SN12C renal
OVCAR-5 ovarian = tested on: OVCAR-5 ovarian
SNB-19 CNS = tested on: SNB-19 CNS
SF-268 CNS = tested on: SF-268 CNS
LOX IMVI melanoma = tested on: LOX IMVI melanoma
HOP-62 NSCLC = tested on: HOP-62 NSCLC
SW-620 colon = tested on: SW-620 colon
TK-10 renal = tested on: TK-10 renal
DMS 114 small cell lung = tested on: DMS 114 small cell lung
NCI-H23 lung = tested on: NCI-H23 lung
SK-MEL-5 melanoma = tested on: SK-MEL-5 melanoma
CCRF-CEM leukemia = tested on: CCRF-CEM leukemia
UO-31 renal = tested on: UO-31 renal
DLD-1 colon = tested on: DLD-1 colon
OVCAR-3 ovarian = tested on: OVCAR-3 ovarian
RPMI-8226 leukemia = tested on: RPMI-8226 leukemia
SNB-78 CNS = tested on: SNB-78 CNS
HT29 colon = tested on: HT29 colon
OVCAR-4 ovarian = tested on: OVCAR-4 ovarian
HOP-18 NSCLC = tested on: HOP-18 NSCLC
EKVX NSCLC = tested on: EKVX NSCLC
KM12 colon = tested on: KM12 colon
A549 NSCLC = tested on: A549 NSCLC
786-0 renal = tested on: 786-0 renal
MOLT-4 leukemia = tested on: MOLT-4 leukemia
CAKI-1 renal = tested on: CAKI-1 renal
NCI-H460 lung = tested on: NCI-H460 lung
NCI-H226 lung = tested on: NCI-H226 lung
M14 melanoma = tested on: M14 melanoma
COLO 205 colon = tested on: COLO 205 colon
SK-OV-3 ovarian = tested on: SK-OV-3 ovarian
SK-MEL-28 melanoma = tested on: SK-MEL-28 melanoma
DMS 273 small cell lung = tested on: DMS 273 small cell lung
HCC-2998 colon = tested on: HCC-2998 colon
XF 498 CNS = tested on: XF 498 CNS
SF-295 CNS = tested on: SF-295 CNS
LXFL 529 NSCLC = tested on: LXFL 529 NSCLC
HCT-116 colon = tested on: HCT-116 colon
U251 CNS = tested on: U251 CNS
SNB-75 CNS = tested on: SNB-75 CNS
SR leukemia = tested on: SR leukemia
A498 renal = tested on: A498 renal
HOP-92 NSCLC = tested on: HOP-92 NSCLC
HCT-15 colon = tested on: HCT-15 colon
M19-MEL melanoma = tested on: M19-MEL melanoma

Q: With `COc1cc(O)c(C(=O)CC(C)=O)c(OC)c1` as the compound, how does the TGI (RXF 393 renal) read?
A: The TGI was > 100 µM.

Q: And the TGI (KM20L2 colon)?
A: The TGI was > 100 µM.

Q: What about the TGI (SK-MEL-2 melanoma) of the same compound?
A: The TGI was > 100 µM.

Q: What about the TGI (OVCAR-8 ovarian) of the same compound?
A: Its TGI is > 100 µM.

Q: What about the TGI (HL-60(TB) leukemia) of the same compound?
A: Its TGI is > 100 µM.

Q: And the TGI (K-562 leukemia)?
A: The TGI was > 100 µM.

Q: What about the TGI (MALME-3M melanoma) of the same compound?
A: The TGI was > 100 µM.

Q: What about the TGI (NCI-H522 lung) of the same compound?
A: The TGI was > 100 µM.

Q: What about the TGI (SF-539 CNS) of the same compound?
A: The TGI was > 100 µM.

Q: What about the TGI (ACHN renal) of the same compound?
A: Its TGI is > 100 µM.

Q: What about the TGI (IGROV1 ovarian) of the same compound?
A: The TGI was > 100 µM.

Q: And the TGI (UACC-62 melanoma)?
A: The TGI was > 100 µM.

Q: And the TGI (UACC-257 melanoma)?
A: The TGI was > 100 µM.

Q: What about the TGI (SN12C renal) of the same compound?
A: The TGI was > 100 µM.

Q: What about the TGI (OVCAR-5 ovarian) of the same compound?
A: Its TGI is > 100 µM.

Q: What about the TGI (SNB-19 CNS) of the same compound?
A: Its TGI is > 100 µM.

Q: What about the TGI (SF-268 CNS) of the same compound?
A: Its TGI is > 100 µM.

Q: And the TGI (LOX IMVI melanoma)?
A: Its TGI is > 100 µM.

Q: And the TGI (HOP-62 NSCLC)?
A: Its TGI is > 100 µM.

Q: What about the TGI (SW-620 colon) of the same compound?
A: The TGI was > 100 µM.

Q: And the TGI (TK-10 renal)?
A: Its TGI is > 100 µM.

Q: What about the TGI (DMS 114 small cell lung) of the same compound?
A: Its TGI is > 100 µM.

Q: What about the TGI (NCI-H23 lung) of the same compound?
A: Its TGI is > 100 µM.

Q: And the TGI (SK-MEL-5 melanoma)?
A: The TGI was > 100 µM.

Q: What about the TGI (CCRF-CEM leukemia) of the same compound?
A: Its TGI is > 100 µM.

Q: And the TGI (UO-31 renal)?
A: Its TGI is > 100 µM.

Q: And the TGI (DLD-1 colon)?
A: Its TGI is > 100 µM.

Q: And the TGI (OVCAR-3 ovarian)?
A: Its TGI is > 100 µM.

Q: What about the TGI (RPMI-8226 leukemia) of the same compound?
A: The TGI was > 100 µM.

Q: What about the TGI (SNB-78 CNS) of the same compound?
A: Its TGI is > 100 µM.

Q: What about the TGI (HT29 colon) of the same compound?
A: Its TGI is > 100 µM.

Q: What about the TGI (OVCAR-4 ovarian) of the same compound?
A: The TGI was > 100 µM.

Q: And the TGI (HOP-18 NSCLC)?
A: The TGI was > 100 µM.

Q: And the TGI (EKVX NSCLC)?
A: Its TGI is > 100 µM.

Q: And the TGI (KM12 colon)?
A: The TGI was > 100 µM.

Q: What about the TGI (A549 NSCLC) of the same compound?
A: The TGI was > 100 µM.

Q: And the TGI (786-0 renal)?
A: The TGI was > 100 µM.

Q: What about the TGI (MOLT-4 leukemia) of the same compound?
A: The TGI was > 100 µM.

Q: And the TGI (CAKI-1 renal)?
A: The TGI was > 100 µM.

Q: And the TGI (NCI-H460 lung)?
A: The TGI was > 100 µM.

Q: What about the TGI (NCI-H226 lung) of the same compound?
A: The TGI was > 100 µM.

Q: And the TGI (M14 melanoma)?
A: Its TGI is > 100 µM.

Q: What about the TGI (COLO 205 colon) of the same compound?
A: Its TGI is > 100 µM.

Q: What about the TGI (SK-OV-3 ovarian) of the same compound?
A: The TGI was > 100 µM.

Q: And the TGI (SK-MEL-28 melanoma)?
A: Its TGI is > 100 µM.

Q: What about the TGI (DMS 273 small cell lung) of the same compound?
A: The TGI was > 100 µM.

Q: And the TGI (HCC-2998 colon)?
A: Its TGI is > 100 µM.

Q: And the TGI (XF 498 CNS)?
A: Its TGI is > 100 µM.

Q: And the TGI (SF-295 CNS)?
A: Its TGI is > 100 µM.

Q: What about the TGI (LXFL 529 NSCLC) of the same compound?
A: Its TGI is > 100 µM.

Q: And the TGI (HCT-116 colon)?
A: The TGI was > 100 µM.

Q: What about the TGI (U251 CNS) of the same compound?
A: Its TGI is > 100 µM.

Q: And the TGI (SNB-75 CNS)?
A: Its TGI is > 100 µM.

Q: Which results are given for `CCCN(CCC)CCc1cc(C(C)=O)n(S(=O)(=O)c2ccc(C)cc2)c1`?
A: TGI (SK-MEL-2 melanoma): > 100 µM; TGI (OVCAR-8 ovarian): > 100 µM; TGI (K-562 leukemia): > 100 µM; TGI (MALME-3M melanoma): > 100 µM; TGI (NCI-H522 lung): > 100 µM; TGI (SF-539 CNS): > 100 µM; TGI (ACHN renal): > 100 µM; TGI (IGROV1 ovarian): > 100 µM; TGI (UACC-62 melanoma): > 100 µM; TGI (UACC-257 melanoma): > 100 µM; TGI (SN12C renal): > 100 µM; TGI (SR leukemia): > 100 µM; TGI (OVCAR-5 ovarian): > 100 µM; TGI (SNB-19 CNS): > 100 µM; TGI (SF-268 CNS): > 100 µM; TGI (HOP-62 NSCLC): > 100 µM; TGI (SW-620 colon): > 100 µM; TGI (TK-10 renal): > 100 µM; TGI (A498 renal): > 100 µM; TGI (DMS 114 small cell lung): > 100 µM; TGI (NCI-H23 lung): > 100 µM; TGI (SK-MEL-5 melanoma): > 100 µM; TGI (CCRF-CEM leukemia): > 100 µM; TGI (UO-31 renal): > 100 µM; TGI (DLD-1 colon): > 100 µM; TGI (OVCAR-3 ovarian): > 100 µM; TGI (RPMI-8226 leukemia): > 100 µM; TGI (SNB-78 CNS): > 100 µM; TGI (HT29 colon): > 100 µM; TGI (OVCAR-4 ovarian): > 100 µM; TGI (HOP-18 NSCLC): > 100 µM; TGI (EKVX NSCLC): > 100 µM; TGI (KM12 colon): > 100 µM; TGI (A549 NSCLC): > 100 µM; TGI (786-0 renal): > 100 µM; TGI (HOP-92 NSCLC): > 100 µM; TGI (HCT-15 colon): > 100 µM; TGI (MOLT-4 leukemia): > 100 µM; TGI (CAKI-1 renal): > 100 µM; TGI (NCI-H460 lung): > 100 µM; TGI (NCI-H226 lung): > 100 µM; TGI (M14 melanoma): 40.2 µM; TGI (COLO 205 colon): > 100 µM; TGI (SK-OV-3 ovarian): > 100 µM; TGI (SK-MEL-28 melanoma): > 100 µM; TGI (DMS 273 small cell lung): > 100 µM; TGI (HCC-2998 colon): > 100 µM; TGI (M19-MEL melanoma): > 100 µM; TGI (SF-295 CNS): > 100 µM; TGI (LXFL 529 NSCLC): > 100 µM; TGI (HCT-116 colon): > 100 µM; TGI (U251 CNS): > 100 µM; TGI (SNB-75 CNS): > 100 µM
